Results from the supplement of paper PMC10307832.

Experiments:
Assay in all cases: relative viability (nuclei count vs DMSO), 5 days (fraction); higher = more cells survive
Doxorubicin + Trametinib = compound: COc1cccc2c1C(=O)c1c(O)c3c(c(O)c1C2=O)C[C@@](O)(C(=O)CO)C[C@@H]3O[C@H]1C[C@H](N)[C@H](O)[C@H](C)O1 [Doxorubicin] + CC(=O)Nc1cccc(-n2c(=O)n(C3CC3)c(=O)c3c(Nc4ccc(I)cc4F)n(C)c(=O)c(C)c32)c1 [Trametinib] (partner 0.02 µM)
Summary of the method: (§1)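 Relative viability equals treated-well nuclei counts divided by vehicle-well nuclei counts. Counts came from 4× images of lung cancer cell lines grown in 1536-well plates for 5 days after pin-tool dosing on the day after seeding. Dosing used one drug alone or a fixed anchor-drug dose plus five library-drug doses (not always all listed) in √10 steps, and values are medians of duplicate plates.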

Doxorubicin + Foretinib = compound: COc1cccc2c1C(=O)c1c(O)c3c(c(O)c1C2=O)C[C@@](O)(C(=O)CO)C[C@@H]3O[C@H]1C[C@H](N)[C@H](O)[C@H](C)O1 [Doxorubicin] + COc1cc2c(Oc3ccc(NC(=O)C4(C(=O)Nc5ccc(F)cc5)CC4)cc3F)ccnc2cc1OCCCN1CCOCC1 [Foretinib] (partner 0.25 µM)
Summary of the method: as §1

BAY61-3606 + Dasatinib = compound: COC1=C(C=C(C=C1)C2=CC3=NC=CN3C(=N2)NC4=C(C=CC=N4)C(=O)N)OC [BAY61-3606] + Cc1nc(Nc2ncc(C(=O)Nc3c(C)cccc3Cl)s2)cc(N2CCN(CCO)CC2)n1 [Dasatinib] (partner 0.075 µM)
Summary of the method: as §1

Doxorubicin + Pictilisib = compound: COc1cccc2c1C(=O)c1c(O)c3c(c(O)c1C2=O)C[C@@](O)(C(=O)CO)C[C@@H]3O[C@H]1C[C@H](N)[C@H](O)[C@H](C)O1 [Doxorubicin] + CS(=O)(=O)N1CCN(Cc2cc3nc(-c4cccc5[nH]ncc45)nc(N4CCOCC4)c3s2)CC1 [Pictilisib] (partner 1 µM)
Summary of the method: as §1

Cell Line | relative viability (Doxorubicin + Trametinib; first compound 0.001 µM) | relative viability (Doxorubicin + Trametinib; first compound 0.003162 µM) | relative viability (Doxorubicin + Trametinib; first compound 0.01 µM) | relative viability (Doxorubicin + Trametinib; first compound 0.03162 µM) | relative viability (Doxorubicin + Trametinib; first compound 0.1 µM) | relative viability (Doxorubicin + Foretinib; first compound 0.001 µM) | relative viability (Doxorubicin + Foretinib; first compound 0.003162 µM) | relative viability (Doxorubicin + Foretinib; first compound 0.01 µM) | relative viability (Doxorubicin + Foretinib; first compound 0.03162 µM) | relative viability (Doxorubicin + Foretinib; first compound 0.1 µM) | relative viability (BAY61-3606 + Dasatinib; first compound 0.02 µM) | relative viability (BAY61-3606 + Dasatinib; first compound 0.06325 µM) | relative viability (BAY61-3606 + Dasatinib; first compound 0.2 µM) | relative viability (BAY61-3606 + Dasatinib; first compound 0.6325 µM) | relative viability (BAY61-3606 + Dasatinib; first compound 2 µM) | relative viability (Doxorubicin + Pictilisib; first compound 0.001 µM) | relative viability (Doxorubicin + Pictilisib; first compound 0.003162 µM) | relative viability (Doxorubicin + Pictilisib; first compound 0.01 µM) | relative viability (Doxorubicin + Pictilisib; first compound 0.03162 µM) | relative viability (Doxorubicin + Pictilisib; first compound 0.1 µM)
NCI-H1755 | 0.791 | 0.804 | 0.784 | 0.77 | 0.88 | 0.981 | 0.949 | 0.903 | 0.971 | 0.937 | 0.415 | 0.412 | 0.432 | 0.397 | 0.317 | 0.342 | 0.508 | 0.451 | 0.444 | 0.44
H3255 |  | 0.62 | 0.633 | 0.518 | 0.591 | 0.791 | 0.821 | 0.973 | 0.818 | 0.863 | 0.411 | 0.304 | 0.352 | 0.335 | 0.462 | 0.481 | 0.482 | 0.415 | 0.452 | 0.48
201T | 0.699 | 0.727 | 0.709 | 0.71 | 0.736 | 0.963 | 1.03 | 1.02 | 0.898 | 0.523 | 0.545 | 0.509 | 0.546 | 0.548 | 0.571 | 0.666 | 0.648 | 0.658 | 0.719 | 0.68
NCI-H2228 | 0.178 | 0.533 | 0.411 | 0.356 | 0.165 | 0.805 | 0.992 | 0.689 | 0.651 | 0.363 | 0.572 | 0.498 | 0.571 | 0.46 | 0.278 | 0.154 | 0.272 | 0.295 | 0.153 | 0.117
CAL-12T | 0.381 | 0.352 | 0.33 | 0.225 | 0.125 | 1.03 | 1.07 | 1.04 | 0.568 | 0.35 | 0.495 | 0.383 | 0.404 | 0.479 | 0.131 | 0.508 | 0.559 | 0.402 | 0.343 | 0.25
NCI-H661 | 0.613 | 0.604 | 0.488 | 0.401 | 0.388 | 1.01 | 1 | 0.954 | 0.826 | 0.542 | 0.985 | 0.835 | 0.861 | 0.886 | 0.702 | 0.399 | 0.412 | 0.378 | 0.452 | 0.324
NCI-H2085 | 0.623 | 0.557 | 0.564 | 0.472 | 0.496 | 1.05 | 0.981 | 1.08 | 0.923 | 0.855 | 0.281 | 0.226 | 0.285 | 0.248 | 0.25 | 0.509 | 0.537 | 0.512 | 0.459 | 0.519
NCI-H2023 | 0.456 | 0.513 | 0.437 | 0.151 | 0.11 | 0.567 | 0.934 | 0.507 | 0.461 | 0.17 | 0.639 | 0.601 | 0.554 | 0.525 | 0.334 | 0.169 | 0.248 | 0.192 | 0.104 | 0.0731
